The test has as its target Beta-2 adrenergic receptor (Rattus norvegicus) (UniProt P10608). The experiment in a line: Inhibition of beta-2 adrenergic receptor isolated from rat lung homogenates.

Beta-2 adrenergic receptor (Rattus norvegicus), sequence (P10608 whole entry, looked up): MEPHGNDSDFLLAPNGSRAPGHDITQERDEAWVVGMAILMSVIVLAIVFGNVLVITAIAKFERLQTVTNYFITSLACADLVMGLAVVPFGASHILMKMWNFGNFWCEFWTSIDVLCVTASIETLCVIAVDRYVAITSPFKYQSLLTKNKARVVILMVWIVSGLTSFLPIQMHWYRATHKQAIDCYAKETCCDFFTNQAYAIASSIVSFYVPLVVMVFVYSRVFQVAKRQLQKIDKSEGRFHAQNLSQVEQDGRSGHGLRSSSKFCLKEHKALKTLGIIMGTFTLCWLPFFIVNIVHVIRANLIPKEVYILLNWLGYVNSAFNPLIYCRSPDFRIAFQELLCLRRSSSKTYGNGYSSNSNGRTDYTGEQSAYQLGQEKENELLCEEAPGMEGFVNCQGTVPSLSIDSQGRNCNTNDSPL

On to `CCOC(=O)c1ccc(NCC(O)CON=C(C2CC2)C2CC2)cc1` (stereo unspecified) [4-(3-Dicyclopropylmethyleneaminooxy-2-hydroxy-propylamino)-benzoic acid ethyl ester], for which the IC50 – broadly, the concentration that inhibits the measured activity by half – was > 10 µM.

For `O=C(O)c1ccc(NCC(O)CON=C(C2CC2)C2CC2)cc1` (stereo unspecified) [4-(3-Dicyclopropylmethyleneaminooxy-2-hydroxy-propylamino)-benzoic acid], the half-maximal inhibitory concentration (IC50) is > 10 µM. The result for `Cc1cccc(NCC(O)CON=C(C2CC2)C2CC2)c1` (stereo unspecified) [Dicyclopropyl-methanone O-(2-hydroxy-3-m-tolylamino-propyl)-oxime] reads > 10 µM; that for `Cc1ccccc1NCC(O)CON=C(C1CC1)C1CC1` (stereo unspecified) [Dicyclopropyl-methanone O-(2-hydroxy-3-o-tolylamino-propyl)-oxime], > 10 µM. Take `Cc1ccc(NCC(O)CON=C(C2CC2)C2CC2)cc1` (stereo unspecified) [Dicyclopropyl-methanone O-(2-hydroxy-3-p-tolylamino-propyl)-oxime]: the IC50 is > 10 µM. As for `CC(C)(Cc1ccc(NCC(O)CON=C(C2CC2)C2CC2)cc1)NCC(O)CON=C(C1CC1)C1CC1` (stereo unspecified) [Dicyclopropyl-methanone O-(3-{2-[4-(3-dicyclopropylmethyleneaminooxy-2-hydroxy-propylamino)-phenyl]-1,1-dimethyl-ethylamino}-2-hydroxy-propyl)-oxime], the figure is 1.5 µM; as for `OC(CNc1ccccc1I)CON=C(C1CC1)C1CC1` (stereo unspecified) [Dicyclopropyl-methanone O-[2-hydroxy-3-(2-iodo-phenylamino)-propyl]-oxime], > 10 µM; as for `OC(CNc1cccc(I)c1)CON=C(C1CC1)C1CC1` (stereo unspecified) [Dicyclopropyl-methanone O-[2-hydroxy-3-(3-iodo-phenylamino)-propyl]-oxime], > 10 µM. `Oc1ccc(NCC(O)CON=C(C2CC2)C2CC2)cc1` (stereo unspecified) [Dicyclopropyl-methanone O-[2-hydroxy-3-(4-hydroxy-phenylamino)-propyl]-oxime]: the IC50 is > 10 µM. As for `OC(CNc1ccc(I)cc1)CON=C(C1CC1)C1CC1` (stereo unspecified) [Dicyclopropyl-methanone O-[2-hydroxy-3-(4-iodo-phenylamino)-propyl]-oxime], the figure is > 10 µM. The result for `Cc1ccnc(NCC(O)CON=C(C2CC2)C2CC2)c1` (stereo unspecified) [Dicyclopropyl-methanone O-[2-hydroxy-3-(4-methyl-pyridin-2-ylamino)-propyl]-oxime] reads > 10 µM. In the case of `O=[N+]([O-])c1ccc(NCC(O)CO[N-][C+](C2CC2)C2CC2)cc1` (stereo unspecified) [Dicyclopropyl-methanone O-[2-hydroxy-3-(4-nitro-phenylamino)-propyl]-oxime], the IC50 is > 10 µM. As to `OC(CNc1ccc(C(F)(F)F)cc1)CON=C(C1CC1)C1CC1` (stereo unspecified) [Dicyclopropyl-methanone O-[2-hydroxy-3-(4-trifluoromethyl-phenylamino)-propyl]-oxime], the IC50 is > 10 µM. As for `Cc1ccc(NCC(O)CON=C(C2CC2)C2CC2)nc1` (stereo unspecified) [Dicyclopropyl-methanone O-[2-hydroxy-3-(5-methyl-pyridin-2-ylamino)-propyl]-oxime], the figure is > 10 µM.

With `Cc1cccc(NCC(O)CON=C(C2CC2)C2CC2)n1` (stereo unspecified) [Dicyclopropyl-methanone O-[2-hydroxy-3-(6-methyl-pyridin-2-ylamino)-propyl]-oxime], the IC50 was > 10 µM. With `CN(CC(O)CON=C(C1CC1)C1CC1)c1ccccc1` (stereo unspecified) [Dicyclopropyl-methanone O-[2-hydroxy-3-(methyl-phenyl-amino)-propyl]-oxime], the IC50 was > 10 µM.

On to `OC(CNc1ccccn1)CON=C(C1CC1)C1CC1` (stereo unspecified) [Dicyclopropyl-methanone O-[2-hydroxy-3-(pyridin-2-ylamino)-propyl]-oxime], for which the IC50 is > 10 µM. The result for `OC(CNc1ccncc1)CON=C(C1CC1)C1CC1` (stereo unspecified) [Dicyclopropyl-methanone O-[2-hydroxy-3-(pyridin-4-ylamino)-propyl]-oxime] reads > 10 µM; that for `OC(CNc1nc2ccccc2[nH]1)CON=C(C1CC1)C1CC1` (stereo unspecified) [Dicyclopropyl-methanone O-[3-(1H-benzoimidazol-2-ylamino)-2-hydroxy-propyl]-oxime], > 10 µM. With `OC(CNc1ccc(Br)cc1)CON=C(C1CC1)C1CC1` (stereo unspecified) [Dicyclopropyl-methanone O-[3-(4-bromo-phenylamino)-2-hydroxy-propyl]-oxime], the IC50 was > 10 µM. As for `CCCCc1ccc(NCC(O)CON=C(C2CC2)C2CC2)cc1` (stereo unspecified) [Dicyclopropyl-methanone O-[3-(4-butyl-phenylamino)-2-hydroxy-propyl]-oxime], the figure is > 10 µM; as for `OC(CNc1ccc(Cl)cc1)CON=C(C1CC1)C1CC1` (stereo unspecified) [Dicyclopropyl-methanone O-[3-(4-chloro-phenylamino)-2-hydroxy-propyl]-oxime], > 10 µM.

As to `OC(CNc1ccc(F)cc1)CON=C(C1CC1)C1CC1` (stereo unspecified) [Dicyclopropyl-methanone O-[3-(4-fluoro-phenylamino)-2-hydroxy-propyl]-oxime], the IC50 is > 10 µM. The result for `CC(C)(C)c1ccc(NCC(O)CON=C(C2CC2)C2CC2)cc1` (stereo unspecified) [Dicyclopropyl-methanone O-[3-(4-tert-butyl-phenylamino)-2-hydroxy-propyl]-oxime] reads > 10 µM. The result for `OC(CNc1nc2ccccc2s1)CON=C(C1CC1)C1CC1` (stereo unspecified) [Dicyclopropyl-methanone O-[3-(benzothiazol-2-ylamino)-2-hydroxy-propyl]-oxime] reads > 10 µM; that for `OC(CNc1ccccc1-c1ccccc1)CON=C(C1CC1)C1CC1` (stereo unspecified) [Dicyclopropyl-methanone O-[3-(biphenyl-2-ylamino)-2-hydroxy-propyl]-oxime], > 10 µM; that for `OC(CNc1ccc(-c2ccccc2)cc1)CON=C(C1CC1)C1CC1` (stereo unspecified) [Dicyclopropyl-methanone O-[3-(biphenyl-4-ylamino)-2-hydroxy-propyl]-oxime], > 10 µM. As for `CC(C)(Cc1ccc(NCC(O)CO[N-][C+](C2CC2)C2CC2)cc1)[N+](=O)[O-]` (stereo unspecified) [Dicyclopropyl-methanone O-{2-hydroxy-3-[4-(2-methyl-2-nitro-propyl)-phenylamino]-propyl}-oxime], the figure is > 10 µM. `CC(C)(Cc1ccc(N)cc1)NCC(O)CON=C(C1CC1)C1CC1` (stereo unspecified) [Dicyclopropyl-methanone O-{3-[2-(4-amino-phenyl)-1,1-dimethyl-ethylamino]-2-hydroxy-propyl}-oxime] came in with a half-inhibitory concentration (IC50) of 2 µM.

In the case of `CC(C)(N)Cc1ccc(NCC(O)CON=C(C2CC2)C2CC2)cc1` (stereo unspecified) [Dicyclopropyl-methanone O-{3-[4-(2-amino-2-methyl-propyl)-phenylamino]-2-hydroxy-propyl}-oxime], the half-inhibitory concentration (IC50) is > 10 µM. For `OC(CNc1ccccc1)CON=C(C1CC1)C1CC1` (stereo unspecified) [Dicyclopropylmethanone O-(3-anilino-2-hydroxypropyl)oxime], the IC50 is > 10 µM.

(Values after BindingDB's records for doi:10.1021/jm970338c (University of Grenoble, 1998).)
